From ChEMBL document CHEMBL1201862, “PubChem BioAssay data set” (2004)
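96-well plates; 48 h exposure; 5 concentrations. Endpoints by linear interpolation between flanking doses. Not reached: highest tested concentration assigned. GI50 marks 50% less growth.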 Calls of active or inactive are those of the source. Cut-off read from the data, not from the text of the source: active = GI50 up to about 1.1 µM and inactive = higher.

Assays:
Experiment in all cases: NCI tumour cell line growth inhibition, 48 h
U-251 = system: U-251
UO-31 = system: UO-31
HCT-116 = system: HCT-116
NCI/ADR-RES = system: NCI/ADR-RES
Malme-3M = system: Malme-3M
MCF7 = system: MCF7
IGROV-1 = system: IGROV-1
SK-OV-3 = system: SK-OV-3
COLO 205 = system: COLO 205
HOP-92 = system: HOP-92
NCI-H226 = system: NCI-H226
MOLT-4 = system: MOLT-4
KM12 = system: KM12
HCT-15 = system: HCT-15
NCI-H522 = system: NCI-H522
SF-295 = system: SF-295
EKVX = system: EKVX
SK-MEL-28 = system: SK-MEL-28
TK-10 = system: TK-10
ACHN = system: ACHN

| SMILES | GI50 (U-251) | GI50 (UO-31) | GI50 (HCT-116) | GI50 (NCI/ADR-RES) | GI50 (Malme-3M) | GI50 (MCF7) | GI50 (IGROV-1) | GI50 (SK-OV-3) | GI50 (COLO 205) | GI50 (HOP-92) | GI50 (NCI-H226) | GI50 (MOLT-4) | GI50 (KM12) | GI50 (HCT-15) [µM] | GI50 (NCI-H522) | GI50 (SF-295) | GI50 (EKVX) | GI50 (SK-MEL-28) | GI50 (TK-10) | GI50 (ACHN) |
| --- | --- | --- | --- | --- | --- | --- | --- | --- | --- | --- | --- | --- | --- | --- | --- | --- | --- | --- | --- | --- |
| Nc1c(S(=O)(=O)O)cc2cc(S(=O)(=O)O)ccc2c1/N=N/c1ccc(-c2ccc(/N=N/c3c(N)c(S(=O)(=O)O)cc4cc(S(=O)(=O)O)ccc34)c(S(=O)(=O)O)c2)cc1 | > 100 µM (inactive) | > 92.3 µM (inactive) | > 100 µM (inactive) | > 100 µM (inactive) | > 100 µM (inactive) | 22.8 µM (inactive) | 54.7 µM (inactive) | > 100 µM (inactive) | > 100 µM (inactive) | > 56.9 µM (inactive) | > 81.3 µM (inactive) | 95.7 µM (inactive) | > 100 µM (inactive) | > 91.4 | > 100 µM (inactive) | > 100 µM (inactive) | > 100 µM (inactive) | > 100 µM (inactive) | – | – |
| CC(C)N1CSC(=S)N(Cc2ccccc2)C1 | > 10 µM (inactive) | – | 3.01 µM (inactive) | > 10 µM (inactive) | – | 4.16 µM (inactive) | > 10 µM (inactive) | > 10 µM (inactive) | 3.94 µM (inactive) | 2.84 µM (inactive) | – | 2.63 µM (inactive) | 3.36 µM (inactive) | 3.4 | – | > 10 µM (inactive) | > 10 µM (inactive) | 3.78 µM (inactive) | 3.61 µM (inactive) | > 10 µM (inactive) |
| COc1cccc2[s+]snc12 | > 10 µM (inactive) | 25.1 µM (inactive) | 45.4 µM (inactive) | – | > 100 µM (inactive) | – | > 100 µM (inactive) | > 100 µM (inactive) | > 100 µM (inactive) | – | > 100 µM (inactive) | 29.7 µM (inactive) | 59.6 µM (inactive) | 42.4 | > 10 µM (inactive) | 46.3 µM (inactive) | > 100 µM (inactive) | > 100 µM (inactive) | > 100 µM (inactive) | 47.8 µM (inactive) |
| Cn1c(-c2cccs2)cc(-c2cccs2)c1-c1ccco1 | 56.1 µM (inactive) | 31.5 µM (inactive) | 27.7 µM (inactive) | 40.7 µM (inactive) | – | 0.473 µM (active) | > 48.9 µM (inactive) | > 100 µM (inactive) | 27.5 µM (inactive) | 63 µM (inactive) | > 100 µM (inactive) | 1.8 µM (inactive) | 6.07 µM (inactive) | 14.4 | 21.2 µM (inactive) | 29.4 µM (inactive) | 16.6 µM (inactive) | 49.1 µM (inactive) | 41.7 µM (inactive) | > 93.3 µM (inactive) |
| CC1=C(C(=O)Nc2cccc(Cl)c2)C(c2ccccc2O)C(C(=O)Nc2cccc(Cl)c2)=C(C)N1 | 19.9 µM (inactive) | 17.2 µM (inactive) | – | – | 19.4 µM (inactive) | – | 23.9 µM (inactive) | 24.3 µM (inactive) | 20 µM (inactive) | 20.1 µM (inactive) | 17.7 µM (inactive) | 25.2 µM (inactive) | 16.8 µM (inactive) | – | 17.1 µM (inactive) | 22.1 µM (inactive) | 22.4 µM (inactive) | 17.1 µM (inactive) | 18.9 µM (inactive) | 23.7 µM (inactive) |
| CCOC(=O)C1=C(C)N(NC(N)=O)C2(O)CCCC(=O)C12C (configuration not stated) | > 100 µM (inactive) | – | > 10 µM (inactive) | – | > 100 µM (inactive) | – | > 100 µM (inactive) | > 100 µM (inactive) | > 100 µM (inactive) | > 100 µM (inactive) | > 100 µM (inactive) | – | > 100 µM (inactive) | > 100 | > 100 µM (inactive) | > 100 µM (inactive) | – | > 100 µM (inactive) | > 100 µM (inactive) | > 100 µM (inactive) |
| c1ccc(C(c2ccccc2)[P+](c2ccccc2)(c2ccccc2)c2ccccc2)cc1 | 0.431 µM (active) | 0.951 µM (active) | 0.326 µM (active) | 35.2 µM (inactive) | 0.726 µM (active) | 0.449 µM (active) | 0.394 µM (active) | 0.596 µM (active) | 0.289 µM (active) | 0.543 µM (active) | 0.684 µM (active) | 0.419 µM (active) | 0.241 µM (active) | 4.62 | 0.223 µM (active) | 1.7 µM (inactive) | 4.7 µM (inactive) | 0.446 µM (active) | – | – |
| COc1ccc(NC(=O)C(=O)C(C(=O)c2ccccc2)C2OC(=O)c3ccccc32)c([N+](=O)[O-])c1 (configuration not stated) | > 100 µM (inactive) | > 100 µM (inactive) | > 100 µM (inactive) | – | > 100 µM (inactive) | – | > 100 µM (inactive) | > 100 µM (inactive) | > 100 µM (inactive) | > 100 µM (inactive) | > 100 µM (inactive) | > 100 µM (inactive) | > 100 µM (inactive) | > 100 | > 100 µM (inactive) | > 100 µM (inactive) | > 100 µM (inactive) | > 100 µM (inactive) | > 100 µM (inactive) | > 100 µM (inactive) |
| Cc1cc(N(CCOS(C)(=O)=O)CCOS(C)(=O)=O)ccc1C=O | 8.36 µM (inactive) | 2.88 µM (inactive) | 28.9 µM (inactive) | 11.7 µM (inactive) | 7.91 µM (inactive) | 1.22 µM (inactive) | 11.7 µM (inactive) | – | 1.39 µM (inactive) | 9.73 µM (inactive) | – | 1.61 µM (inactive) | 14.7 µM (inactive) | 13.2 | 0.142 µM (active) | 4.35 µM (inactive) | 3.61 µM (inactive) | 3.68 µM (inactive) | 2.91 µM (inactive) | 0.379 µM (active) |
| O=C(NN1C(=O)C(Cl)C1c1ccc([N+](=O)[O-])cc1)c1ccccc1O (configuration not stated) | > 100 µM (inactive) | > 100 µM (inactive) | > 100 µM (inactive) | – | 43 µM (inactive) | – | > 100 µM (inactive) | > 100 µM (inactive) | > 100 µM (inactive) | > 100 µM (inactive) | – | > 100 µM (inactive) | > 100 µM (inactive) | – | > 100 µM (inactive) | > 100 µM (inactive) | > 100 µM (inactive) | > 100 µM (inactive) | > 100 µM (inactive) | – |
| CC(=O)NNc1nc(C)c(C(=O)NNC(=O)C(=O)Nc2ccc([N+](=O)[O-])cc2[N+](=O)[O-])s1 | 68.7 µM (inactive) | > 100 µM (inactive) | > 100 µM (inactive) | – | – | – | > 100 µM (inactive) | > 100 µM (inactive) | > 100 µM (inactive) | 79.3 µM (inactive) | > 100 µM (inactive) | 37.1 µM (inactive) | > 100 µM (inactive) | > 100 | 30.6 µM (inactive) | > 100 µM (inactive) | 35.6 µM (inactive) | > 100 µM (inactive) | > 100 µM (inactive) | > 100 µM (inactive) |
| CCOC(=O)C1=C(C)N(c2ccc(OC)cc2)C2(O)C=CC(O)=C3C(=O)c4ccccc4C(=O)C312 (configuration not stated) | 8.49 µM (inactive) | 13.9 µM (inactive) | 11.3 µM (inactive) | 3.01 µM (inactive) | < 0.01 µM (active) | 6.03 µM (inactive) | 3.56 µM (inactive) | 13.4 µM (inactive) | 11.5 µM (inactive) | 2.25 µM (inactive) | – | 3.89 µM (inactive) | 12.9 µM (inactive) | 6.71 | 2.57 µM (inactive) | 8.77 µM (inactive) | 7.43 µM (inactive) | – | 11 µM (inactive) | 14.3 µM (inactive) |
| CC1(c2sccc2Cl)CC(c2sccc2Cl)=C(C#N)C(=C(C#N)C#N)N1 (configuration not stated) | 18.5 µM (inactive) | – | 17.2 µM (inactive) | 22.8 µM (inactive) | 17.6 µM (inactive) | 22.8 µM (inactive) | 23 µM (inactive) | 17.5 µM (inactive) | 23.1 µM (inactive) | – | – | 38.7 µM (inactive) | 20.9 µM (inactive) | 17.9 | 19.1 µM (inactive) | 17.9 µM (inactive) | 18.7 µM (inactive) | 18.2 µM (inactive) | 17.2 µM (inactive) | 18.5 µM (inactive) |
| S=CN1CCCCC1 | > 100 µM (inactive) | > 100 µM (inactive) | > 100 µM (inactive) | > 100 µM (inactive) | > 100 µM (inactive) | > 100 µM (inactive) | > 100 µM (inactive) | > 100 µM (inactive) | > 100 µM (inactive) | – | > 100 µM (inactive) | > 100 µM (inactive) | > 100 µM (inactive) | > 100 | > 100 µM (inactive) | > 100 µM (inactive) | > 100 µM (inactive) | > 100 µM (inactive) | > 100 µM (inactive) | > 100 µM (inactive) |
| Nc1nc2cc(COc3ccc(C(=O)O)cc3)ccc2nc1-c1ccccc1 | > 10 µM (inactive) | > 10 µM (inactive) | – | – | – | > 10 µM (inactive) | > 10 µM (inactive) | > 10 µM (inactive) | > 10 µM (inactive) | > 10 µM (inactive) | > 10 µM (inactive) | > 10 µM (inactive) | > 10 µM (inactive) | > 10 | > 10 µM (inactive) | > 10 µM (inactive) | > 10 µM (inactive) | > 10 µM (inactive) | > 10 µM (inactive) | > 10 µM (inactive) |
| CC(=O)NC(c1nc2cc(C)c(C)cc2[nH]1)c1nc2cc(C)c(C)cc2[nH]1 | 20.9 µM (inactive) | 25.4 µM (inactive) | 19.1 µM (inactive) | 28.9 µM (inactive) | 29 µM (inactive) | 23.9 µM (inactive) | 11.7 µM (inactive) | 17.7 µM (inactive) | 18 µM (inactive) | 19.8 µM (inactive) | – | 2.86 µM (inactive) | 16 µM (inactive) | 21.2 | 5.12 µM (inactive) | 22.4 µM (inactive) | 24.3 µM (inactive) | 17.7 µM (inactive) | 28.1 µM (inactive) | 29.2 µM (inactive) |
